Literature values in US11596657B2, “Use of AhR agonist for the preventive or curative treatment of metabolic syndrome and the associated disorders” (INSTITUT NATIONAL DE LA RECHERCHE AGRONOMIQUE, priority 2016, dated 2023).

How the values were obtained:
[1] = system: male C57Bl/6J mice fed a Western diet
human AhR = molecular target: T1, human AhR (Homo sapiens, UniProt P35869); settings: potency compared with TCDD
T1 sequence (P35869 11-848): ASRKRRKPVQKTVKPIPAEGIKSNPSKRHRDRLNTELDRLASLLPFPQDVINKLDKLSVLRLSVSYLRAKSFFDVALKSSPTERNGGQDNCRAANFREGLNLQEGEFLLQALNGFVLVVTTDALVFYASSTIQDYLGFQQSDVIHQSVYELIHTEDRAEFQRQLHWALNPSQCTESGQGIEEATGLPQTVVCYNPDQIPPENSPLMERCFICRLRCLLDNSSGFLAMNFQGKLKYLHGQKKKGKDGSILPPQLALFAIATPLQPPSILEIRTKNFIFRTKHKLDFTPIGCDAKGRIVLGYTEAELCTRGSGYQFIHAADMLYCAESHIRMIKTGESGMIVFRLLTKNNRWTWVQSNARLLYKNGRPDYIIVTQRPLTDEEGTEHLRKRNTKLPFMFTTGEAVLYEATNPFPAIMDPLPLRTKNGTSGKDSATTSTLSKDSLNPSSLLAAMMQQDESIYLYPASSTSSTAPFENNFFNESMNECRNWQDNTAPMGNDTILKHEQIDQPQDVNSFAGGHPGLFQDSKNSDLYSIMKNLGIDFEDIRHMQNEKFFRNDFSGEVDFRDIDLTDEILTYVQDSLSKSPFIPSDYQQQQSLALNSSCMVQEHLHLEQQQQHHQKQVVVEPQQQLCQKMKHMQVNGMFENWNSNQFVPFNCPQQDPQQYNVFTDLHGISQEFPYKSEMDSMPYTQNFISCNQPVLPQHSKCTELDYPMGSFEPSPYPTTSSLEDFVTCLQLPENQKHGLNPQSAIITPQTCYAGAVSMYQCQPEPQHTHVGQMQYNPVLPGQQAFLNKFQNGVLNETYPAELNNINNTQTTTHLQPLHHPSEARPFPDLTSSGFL

For Cc1ccccc1N=Nc1ccc(NC(=O)c2ccnn2C)c(C)c1 [CH-223191], the “obesity, adiposity and liver steatosis” value [1] is given as “significantly reduce obesity and adiposity and ameliorates liver steatosis”.

For Cc1cc(C)c(C=C2C(=O)Nc3ccccc32)[nH]1 [SU5416, 3-(3,5-dimethyl-1H-pyrrol-2-ylmethylene)-1,3-dihydro-indole-2-one], the “activation of human AhR” value (human AhR) is given as “activates the human AhR with a potency approaching TCDD”.

For O=c1cc(-c2ccccc2)oc2c1ccc1ccccc12 [α-naphthoflavone], the “obesity, adiposity and liver steatosis” value [1] is listed as “significantly reduce obesity and adiposity and ameliorates liver steatosis”.
